Key:
MIAPaCa-2 (pancreas) = test: In vitro cytotoxic activity MTT assay, MIAPaCa-2; assay type: cell-based; conditions: Homo sapiens, MIA PaCa-2; MIAPaCa-2 (pancreas) cells, exposed for 96 hours; read-out: Cytotoxicity activity IC50 (50% inhibition of cell proliferation)
Method: (§1) Compounds 1-16 were screened for their in vitro cytotoxic activity utilizing a 3-(4,5-dimethyl-thiazol-2-yl)-2,5-diphenyltetrazolium bromide (MTT) assay against selected cancer human cell lines consisting of PC3 (prostate), HCT116 (colon), A375 (melanoma), H1299 (lung), MIAPaCa-2 (pancreas), HL60 (leukemia), MCF7 (breast), MDA-MB-231 (breast) (T. Mosmann, J. Immunol. Meth., 1983, 65, 55-63). The cells were cultured at 37° C. in RMPI1640 medium supplemented with 10% fetal bovine serum, 50 IU/mL penicillin, and 50 μg/mL streptomycin in a 5% CO2 incubator. All cells were sub-cultured 3 times/week by trypsinisation. Viable cells were seeded and allowed to adhere for 12 hours before a test drug was added in 96-well plates at an initial density of 1.0×10^5 cells/mL. Tumor cell lines were separately exposed to various concentrations of the tested compounds followed by incubation at a temperature of 37° C. during 96 hours inside a medium of fresh RMPI 1640. Cells were subsequently incubated at 37° C. using MTT at 0.5 mg/mL during 4 hours. After removal of supernatant, formazan crystals were dissolved in isopropanol and the optical density was measured at 570 nm. CX-4945 was used as a positive control.

HCT116 (colon) = test: In vitro cytotoxic activity MTT assay, HCT116; assay type: cell-based; conditions: Homo sapiens, HCT-116; HCT116 (colon) cells, exposed for 96 hours; read-out: Cytotoxicity activity IC50 (50% inhibition of cell proliferation)
Method: as §1

HL60 (leukemia) = test: In vitro cytotoxic activity MTT assay, HL60; assay type: cell-based; conditions: Homo sapiens, HL-60; HL60 (leukemia) cells, exposed for 96 hours; read-out: Cytotoxicity activity IC50 (50% inhibition of cell proliferation)
Method: as §1

H1299 (lung) = test: In vitro cytotoxic activity MTT assay, H1299; assay type: cell-based; conditions: Homo sapiens, NCI-H1299; H1299 (lung) cells, exposed for 96 hours; read-out: Cytotoxicity activity IC50 (50% inhibition of cell proliferation)
Method: as §1

MCF7 (breast) = test: In vitro cytotoxic activity MTT assay, MCF7; assay type: cell-based; conditions: Homo sapiens; MCF7 (breast) cells, exposed for 96 hours; read-out: Cytotoxicity activity IC50 (50% inhibition of cell proliferation)
Method: as §1

A375 (melanoma) = test: In vitro cytotoxic activity MTT assay, A375; assay type: cell-based; conditions: Homo sapiens, A-375; A375 (melanoma) cells, exposed for 96 hours; read-out: Cytotoxicity activity IC50 (50% inhibition of cell proliferation)
Method: as §1

MDA-MB-231 (breast) = test: In vitro cytotoxic activity MTT assay, MDA-MB-231; assay type: cell-based; conditions: Homo sapiens; MDA-MB-231 (breast) cells, exposed for 96 hours; read-out: Cytotoxicity activity IC50 (50% inhibition of cell proliferation)
Method: as §1

[1] = biological target: T1, recombinant human CK2 (RRββ-holoenzyme) (Homo sapiens, UniProt P68400); test: CK2 Kinase Assay (radiometric, [γ-33P] ATP); assay type: biochemical; conditions: final ATP concentration 15 μM, 10 min at 30° C., eight concentrations; read-out: protein kinase CK2 activity IC50
T1 construct: purchased Millipore
Method: CK2 Kinase Assay was conducted using the protocol as described in Pierre F. et al; J. Med. Chem. 2011, 54, 635-654. The tested compounds in aqueous solution were added at a volume of 10 μL to a reaction mixture comprising 10 μL of assay dilution buffer (ADB; 20 mM MOPS, pH 7.2, 25 mM β-glycerol phosphate, 5 mM EGTA, 1 mM sodium orthovanadate, and 1 mM dithiothreitol), 10 μL of substrate peptide (RRRDDDSDDD, dissolved in ADB at a concentration of 1 mM), 10 μL of recombinant human CK2 (RRββ-holoenzyme, 25 ng dissolved in ADB; Millipore). Reactions were initiated by the addition of 10 μL of ATP solution (90%75 mM MgCl2, 75 μM ATP (final ATP concentration: 15 μM) dissolved in ADB; 10% [γ-33P] ATP (stock 1 mCi/100 μL; 3000 Ci/mmol (Perkin-Elmer) and maintained for 10 min at 30° C. The reactions were quenched with 100 μL of 0.75% phosphoric acid and then transferred to and filtered through a phosphor cellulose filter plate (Millipore). After washing each well five times with 0.75% phosphoric acid, the plate was dried under vacuum for 5 min and, following the addition of 15 μL of scintillation fluid to each well, the residual radioactivity was measured using a Wallac […]. The IC50 values were derived from eight concentrations of test inhibitors.

PC3 (prostate) = test: In vitro cytotoxic activity MTT assay, PC3; assay type: cell-based; conditions: Homo sapiens, Prostate cell; PC3 (prostate) cells, exposed for 96 hours; read-out: Cytotoxicity activity IC50 (50% inhibition of cell proliferation)
Method: as §1

T1 sequence (P68400 whole entry): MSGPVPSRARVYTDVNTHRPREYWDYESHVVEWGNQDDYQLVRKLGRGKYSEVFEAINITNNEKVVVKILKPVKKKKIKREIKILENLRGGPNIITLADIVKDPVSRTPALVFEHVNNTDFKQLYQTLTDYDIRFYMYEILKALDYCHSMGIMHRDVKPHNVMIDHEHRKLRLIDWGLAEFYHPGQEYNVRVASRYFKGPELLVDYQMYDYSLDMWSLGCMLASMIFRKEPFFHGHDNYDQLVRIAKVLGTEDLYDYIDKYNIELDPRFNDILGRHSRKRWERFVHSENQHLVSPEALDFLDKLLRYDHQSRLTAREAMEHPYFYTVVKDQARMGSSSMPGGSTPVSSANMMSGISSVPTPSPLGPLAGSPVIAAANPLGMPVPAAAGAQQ
T1 sequence (P67870 whole entry partner): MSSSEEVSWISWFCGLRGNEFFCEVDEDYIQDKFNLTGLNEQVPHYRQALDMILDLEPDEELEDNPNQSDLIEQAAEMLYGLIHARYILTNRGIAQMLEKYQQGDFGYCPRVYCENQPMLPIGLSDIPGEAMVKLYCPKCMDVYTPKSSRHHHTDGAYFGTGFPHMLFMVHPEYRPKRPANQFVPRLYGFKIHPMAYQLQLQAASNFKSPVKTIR

IC50 [1]: 91 nM
Compound: O=C(O)c1ccn2c1c(Nc1cccc(Cl)c1)nc1ccncc12 [Compound 1, 6-((3-chlorophenyl)amino)pyrido[4,3-e]pyrrolo[1,2-a]pyrazine-7-carboxylic acid]
IC50 (MIAPaCa-2 (pancreas)): 1700 nM
IC50 (HCT116 (colon)): 1500 nM
IC50 (HL60 (leukemia)): 3200 nM
IC50 (H1299 (lung)): 2100 nM
IC50 (MCF7 (breast)): 5900 nM
IC50 (A375 (melanoma)): 4600 nM
IC50 (MDA-MB-231 (breast)): 5300 nM
IC50 (PC3 (prostate)): 2800 nM
